Assay results taken from US11339191B2, “Stapled peptides and uses thereof” (Universite de Montpellier, priority 2016, dated 2022).
Bridge positions count the residues as written; N and C are the ends. Square brackets hold non-standard residues; d marks the D form. S5 = C=CCCC[C@](C)(N)C(=O)O; Nle = CCCC[C@H](N)C(=O)O

Columns and labels:
Assay type in all cases: cell-based, human
TNFα = assay: LPS-stimulated THP-1 monocytes, TNFα in culture supernatant by ELISA
Experimental: (§1) THP1 cells were cultured (300 000 cells/well) in RPMI 1640 supplemented with 10% fetal calf serum, 1% penicillin/streptomycin and L-glutamine. The cells were treated with 0.1 μg/ml LPS for 6 h for TNFα, and 24 h for IL-6 and IL-1β. The peptides were solubilized in 4% DMSO and used at 5 and 20 μM. The peptides were added at the same time as the LPS. The determination of the cytokines in the culture supernatants was carried out with the specific ELISA kits (eBioscience).
(§2) For all conditions tested, THP-1 monocytes were cultured (300 000 cells/well) in RPMI with 10% fetal calf serum; 1% penicillin/streptomycin and L-glutamine. THP-1 were treated with 0.1 μg/mL of LPS for 24 hours, stapled-peptides IRAK2-S1 et IRAKM-S1 were used at 1 to 20 μM and added at the same time for condition A, 6 hours before LPS for condition B and 6 hours after LPS for condition C. The quantification of cytokine in the culture supernatants was carried out with specific IL-6 and TNFα ELISA (eBioscience).
(§3) For all conditions tested, THP-1 monocytes were cultured (300 000 cells/well) in RPMI with 10% fetal calf serum; 1% penicillin/streptomycin and L-glutamine. THP-1 were treated with 0.1 μg/mL of LPS for 24 hours, stapled-peptides IRAK2-S1, IRAK2-JMV6649, IRAKM-S1 and IRAKM-JMV6650 were used at 10 to 20 μM and added at the same time for «Simultaneous» condition, 6 hours before LPS for «preventive» condition and 6 hours after LPS for «curative» condition. Using ELISA (eBioscience), IL-6 and TNFα quantification was carried out in monocyte culture supernatants.

IL-6 = assay: LPS-stimulated THP-1 monocytes, IL-6 in culture supernatant by ELISA; conditions: for effect on the expression level of IL-6: curative condition (peptide 6 hours after LPS), 1 to 20 μM; for IL-6 expression compared with the S1 peptide: curative condition; for efficacy on IL-6 compared with the IRAK2 peptide (IRAK2-S1): 10 to 20 μM
Experimental: as §1, §2, §3

[1] = system: CHOP, BIP and GRP94 genes; assay: Tunicamycin-induced ER stress in THP-1 cells, expression of the CHOP, BIP and GRP94 genes by RT-qPCR; conditions: THP-1, tunicamycin 0.1 μg/ml
Experimental: To assess the specificity of recognition of stapled peptides IRAK2, we induced ER stress in human monocytic cell line THP-1 by treatment with tunicamycin (0.1 μg/ml) for 8 h and 24 h.
THP-1 cells were cultured (300 000 cells/well) in RPMI 1640 supplemented with 10% fetal calf serum, 1% penicillin/streptomycin and L-glutamine. The cells were treated with 0.1 μg/ml tunicamycin for 30 min, 8 H or 24 H. The peptide was solubilized in 4% DMSO and used at concentrations ranging from 1 to 20 μM. Total cell RNAs were extracted with the miRNeasy kit (Qiagen), the expression levels of the genes were measured by RT-qPCR with Taqman assays (Lifetechnology) technology.
We have shown that IRAK2 is the main kinase expressed at 8 h, compared to IRAK1 (FIG. 3A). Measurement of the expression of the CHOP, BIP and GRP94 genes validated the activation of the ER stress at 8H as expected according to literature (FIG. 3B). In this study the peptides IRAK2 Li, IRAKM Li, IRAK2 S1, IRAK2 S2 (Li for linear peptide and S1 and S2 for stapled peptide) were tested. […] This inhibition was specific since, stapled peptide concentration of 20 μM, control stapled peptide (Mock S) has no effect (FIG. 3D).

THP-1 cells = assay: Viability and morphology of PMA-treated THP-1 cells with peptide; conditions: THP-1, peptide 20 μM
Experimental: (§4) We stimulated the THP-1 monocytes with 0.1 μg/ml PMA for 48 h to induce differentiation into macrophages, and treated with 20 μM stapled peptide (IRAK2-S1 or Mock-S).
(§5) THP1 cells were cultured (300,000 cells/well) in RPMI 1640 supplemented with 10% fetal calf serum, 1% penicillin/streptomycin and L-glutamine. The cells were treated with 0.1 μg/ml of PMA for 48 h. The peptides were solubilized in 4% DMSO and used at 20 μM. The peptides are added together with the PMA. Total RNA of the cells were extracted by the miRNeasy kit (Qiagen), the level of expression of IL-1β was measured by RT-qPCR technology by Taqman assays (lifetechnology)
(§6) After extraction of the RNAs, we quantified by RT-qPCR the level of expression of the RNA of IL-1β (FIG. 4A). Using ELISA method, the cytokine secretion was measured in the supernatant of the treated THP-1 (FIG. 4B). The IRAK2-S1 peptide was able to block the expression and production of IL-1β at 20 μM. At this concentration, the peptide appears to have no effect on viability and morphology of the cells.

IL-1β [2] = assay: LPS-stimulated THP-1 monocytes, IL-1β in culture supernatant by ELISA; conditions: THP1, LPS 0.1 μg/ml 24 h, peptide 5 and 20 μM added at the same time as LPS
Experimental: as §1

IL-1β [3] = assay: PMA-induced macrophage differentiation of THP-1 monocytes, IL-1β RNA (RT-qPCR) and secretion (ELISA); conditions: THP-1, PMA 0.1 μg/ml 48 h, peptide 20 μM
Experimental: as §4, §5, §6

[4] = curative condition (peptide 6 hours after LPS), 10 μM
[5] = curative condition (peptide 6 hours after LPS), 20 μM
[6] = preventive condition (peptide 6 hours before LPS), 10 μM
[7] = preventive condition (peptide 6 hours before LPS), 20 μM
[8] = simultaneous condition, LPS 0.1 μg/mL 24 h, peptide 10 and 20 μM
[9] = simultaneous condition, peptide 20 μM

Substance: Ac-S5-REL-S5-WWWGBRQA-NH2 (Ac-[S5]REL[S5]WWWG[Nle]RQA-NH2; staple 1-5; SMILES CCCC[C@H](NC(=O)CNC(=O)[C@H](Cc1c[nH]c2ccccc12)NC(=O)[C@H](Cc1c[nH]c2ccccc12)NC(=O)[C@H](Cc1c[nH]c2ccccc12)NC(=O)[C@]1(C)CCCC=CCCC[C@](C)(NC(C)=O)C(=O)N[C@@H](CCCNC(=N)N)C(=O)N[C@@H](CCC(=O)O)C(=O)N[C@@H](CC(C)C)C(=O)N1)C(=O)N[C@@H](CCCNC(=N)N)C(=O)N[C@@H](CCC(N)=O)C(=O)N[C@@H](C)C(N)=O) [IRAK2-S1]
- TNFα secreted after LPS stimulation (TNFα; THP1, LPS 0.1 μg/ml 6 h, peptide 5 and 20 μM added at the same time as LPS): reduced the expression of the 3 cytokines in a dose-dependent manner
- inhibition of TNFα secretion (TNFα; [4]): ≤ 30%
- inhibition of TNFα secretion (TNFα; [5]): ≤ 70%
- inhibition of TNFα expression (TNFα; [6]): No inhibition
- inhibition of TNFα secretion (TNFα; [7]): 15 to 20%
- inhibition of TNFα secretion (TNFα; [8]): significantly inhibit
- IL-6 secreted after LPS stimulation (IL-6; THP1, LPS 0.1 μg/ml 24 h, peptide 5 and 20 μM added at the same time as LPS): reduced the expression of the 3 cytokines in a dose-dependent manner
- effect on the expression level of IL-6 (IL-6): no effect
- inhibition of IL-6 expression (IL-6; [6]): No inhibition
- inhibition of IL-6 secretion (IL-6; [7]): 15 to 20%
- inhibition of IL-6 secretion (IL-6; [8]): significantly inhibit
- expression of CHOP, GRP94 and BIP (ER stress) ([1]; simultaneous treatment, peptide 1 to 20 μM, RT-qPCR): blocked in a dose-dependent manner
- effect on viability and morphology of the cells (THP-1 cells): no effect
- IL-1β secreted after LPS stimulation (IL-1β [2]): reduced the expression of the 3 cytokines in a dose-dependent manner
- production of IL-1β in supernatant (IL-1β [3]; ELISA): able to block
- expression of IL-1β RNA (IL-1β [3]; RT-qPCR): able to block

Substance: Ac-VSI-S5-REL-S5-WWWGBRQATV-NH2 (Ac-VSI[S5]REL[S5]WWWG[Nle]RQATV-NH2; staple 4-8; SMILES CCCC[C@H](NC(=O)CNC(=O)[C@H](Cc1c[nH]c2ccccc12)NC(=O)[C@H](Cc1c[nH]c2ccccc12)NC(=O)[C@H](Cc1c[nH]c2ccccc12)NC(=O)[C@]1(C)CCCC=CCCC[C@](C)(NC(=O)[C@@H](NC(=O)[C@H](CO)NC(=O)[C@@H](NC(C)=O)C(C)C)[C@@H](C)CC)C(=O)N[C@@H](CCCNC(=N)N)C(=O)N[C@@H](CCC(=O)O)C(=O)N[C@@H](CC(C)C)C(=O)N1)C(=O)N[C@@H](CCCNC(=N)N)C(=O)N[C@@H](CCC(N)=O)C(=O)N[C@@H](C)C(=O)N[C@H](C(=O)N[C@H](C(N)=O)C(C)C)[C@@H](C)O) [IRAK2-JMV6650]
- additional inhibition of TNFα production compared with the S1 peptide (TNFα; curative condition, 10 to 20 μM): not significant
- efficacy on TNFα compared with the IRAK2 peptide (IRAK2-S1) (TNFα; preventive condition, 10 to 20 μM, data not shown): No more efficacy
- efficacy on TNFα compared with the IRAK2 peptide (IRAK2-S1) (TNFα; simultaneous condition, 10 to 20 μM): No more efficacy
- IL-6 expression compared with the S1 peptide (IL-6; 20 μM): acts as IRAK2-S1
- efficacy on IL-6 compared with the IRAK2 peptide (IRAK2-S1) (IL-6; preventive condition, data not shown): No more efficacy
- efficacy on IL-6 compared with the IRAK2 peptide (IRAK2-S1) (IL-6; simultaneous condition): No more efficacy

Substance: Ac-KSG-S5-REL-S5-WSWAQKNKTI-NH2 (Ac-KSG[S5]REL[S5]WSWAQKNKTI-NH2; staple 4-8; SMILES CC[C@H](C)[C@H](NC(=O)[C@@H](NC(=O)[C@H](CCCCN)NC(=O)[C@H](CC(N)=O)NC(=O)[C@H](CCCCN)NC(=O)[C@H](CCC(N)=O)NC(=O)[C@H](C)NC(=O)[C@H](Cc1c[nH]c2ccccc12)NC(=O)[C@H](CO)NC(=O)[C@H](Cc1c[nH]c2ccccc12)NC(=O)[C@]1(C)CCCC=CCCC[C@](C)(NC(=O)CNC(=O)[C@H](CO)NC(=O)[C@H](CCCCN)NC(C)=O)C(=O)N[C@@H](CCCNC(=N)N)C(=O)N[C@@H](CCC(=O)O)C(=O)N[C@@H](CC(C)C)C(=O)N1)[C@@H](C)O)C(N)=O) [IRAKM-JMV6649]
- increase of inhibition of TNFα expression compared with IRAKM-S1 (TNFα; curative condition, 20 μM): not significant
- greater inhibition of TNFα expression compared with IRAKM-S1 (TNFα; preventive condition, 10 μM): 20%
- additive inhibitory effect on TNFα expression compared with IRAKM-S1 (TNFα; simultaneous condition, 20 μM): no additive inhibitory effect
- IL-6 expression compared with the S1 peptide (IL-6; 20 μM): not significant
- additional inhibition of IL-6 expression compared with IRAKM-S1 (IL-6; preventive condition, 10 μM): 60%
- additional inhibition of IL-6 expression compared with IRAKM-S1 (IL-6; preventive condition, 20 μM): 80%
- decrease of IL-6 secretion compared with IRAKM-S1 (IL-6; simultaneous condition, 20 μM): more than 70%

Substance: Ac-KSG-S5-REL-S5-WSWAQK-NH2 (Ac-KSG[S5]REL[S5]WSWAQK-NH2; staple 4-8; SMILES CC(=O)N[C@@H](CCCCN)C(=O)N[C@@H](CO)C(=O)NCC(=O)N[C@@]1(C)CCCC=CCCC[C@@](C)(C(=O)N[C@@H](Cc2c[nH]c3ccccc23)C(=O)N[C@@H](CO)C(=O)N[C@@H](Cc2c[nH]c3ccccc23)C(=O)N[C@@H](C)C(=O)N[C@@H](CCC(N)=O)C(=O)N[C@@H](CCCCN)C(N)=O)NC(=O)[C@H](CC(C)C)NC(=O)[C@H](CCC(=O)O)NC(=O)[C@H](CCCNC(=N)N)NC1=O) [IRAKM-S1]
- inhibition of TNFα secretion (TNFα; [4]): No inhibition
- inhibition of TNFα secretion (TNFα; [5]): 15 to 20%
- inhibition of TNFα secretion (TNFα; [7]): 95%
- inhibition of TNFα secretion (TNFα; [8]): significantly inhibit
- inhibition of TNFα expression (TNFα; [9]): up to 95%
- effect on the expression level of IL-6 (IL-6): no effect
- inhibition of IL-6 secretion (IL-6; [7]): 90%
- inhibition of IL-6 secretion (IL-6; [8]): significantly inhibit
- inhibition of IL-6 expression (IL-6; [9]): ≤ 90%

Substance: Ac-ITF-S5-NLL-S5-YYGP-NH2 (Ac-ITF[S5]NLL[S5]YYGP-NH2; staple 4-8; SMILES CC[C@H](C)[C@H](NC(C)=O)C(=O)N[C@H](C(=O)N[C@@H](Cc1ccccc1)C(=O)N[C@@]1(C)CCCC=CCCC[C@@](C)(C(=O)N[C@@H](Cc2ccc(O)cc2)C(=O)N[C@@H](Cc2ccc(O)cc2)C(=O)NCC(=O)N2CCC[C@H]2C(N)=O)NC(=O)[C@H](CC(C)C)NC(=O)[C@H](CC(C)C)NC(=O)[C@H](CC(N)=O)NC1=O)[C@@H](C)O) [Mock-S, reference compound]
- inhibition of TNFα expression (TNFα; [9]): 15 to 20%
- inhibition of IL-6 expression (IL-6; [9]): 15 to 20%
- expression of ER stress genes (specificity control) ([1]; peptide 20 μM): no effect
